The test system of data set [1] is regional cerebral blood flow (r-CBF). Briefly: r-CBF by hydrogen clearance method in unanesthetized and unrestrained cats. The format is in vivo, Siamese cats. An excerpt: The present inventors therefore employed the hydrogen clearance method wherein unanesthetized and unrestrained cats, each having a platinum electrode embedded in the cerebral cortex at four points, i.e., post. sigmoid G., post. sylvian G., mid. ecto-sylvian G. and post. suprasylvian G., and in the deeper area of the brain at three points, i.e., hippocampus, amygdala and hypothalamus, were exposed to a predetermined amount of hydrogen gas in a chamber. Using this method, the effects of compound Nos. 1 and 2 of the present invention on the regional cerebral blood flow (r-CBF) were evaluated. At the same time, analyses of blood pressure, the pH of blood, the gaseous components of the blood, and blood sugar levels were conducted with catheters being embedded in the femoral artery and vein.
One month before the start of experiment, a platinum electrode was embedded in the cerebral cortex of Siamese cats (both female and male) at four points, i.e., post. sigmoid G., post sylvian G., mid. ecto-sylvian G. and post. suprasylvian G., and in the deeper area of the brain at three points, i.e., hippocampus, amygdala and hypothalamus, the cats being then exposed to a predetermined amount of hydrogen gas in a chamber in an unanesthetized and unrestrained state.
In order to evaluate the effects of compound Nos. 1 and 2 of the present invention on the regional cerebral blood flow (r-CBF), a predetermined amount of each test compound was administered either perorally (p.o.) in gelatin capsules or by intravenous injection (i.v.) In the latter case, 0.2 mg/kg or 1 mg/kg (body weight) of a selected compound of the present invention was dissolved in a quantity of physiological saline equivalent to 1 ml/kg (body weight) and the total amount of their solution was injected over a period of 10 minutes in a sustained manner through a cannula attached to a vein in the upper thigh; a control (vinpocetine) in an amount equivalent to 1 mg/kg or 5 mg/kg (body weight) was dissolved in a quantity of 10% ascorbic acid equivalent to […] (body weight) and the total amount of the solution was injected over a period of 10 minutes in a sustained manner through a cannula attached to a vein in the upper thigh.
In the r-CBF analysis, a clearance curve was obtained with a computer (Signal Processor 7T17, product of Nippon Electric Co., Ltd. and Sanei Co., Ltd.), transformed into semi-logarithmic values which were then processed by the initial slope method to calculate all the values of r-CBF. Only values having a coefficient of correlation of at least 0.9 for regression line were used as applicable data and the level of significance was determined by the paired-t test for absolute values, with the values before administration of a test compound being taken as a control. The level of significance for the control group was tested by time-series dispersion analysis.

The test system of the next data set is basilar artery. Briefly: Vasorelaxation of isolated basilar artery segments. It counts as cell-based, Beagles. To be noted: 1 × 10^-5 M; for vasorelaxating action: in words. The procedure:
Beagles of either sex weighing about 20 kg were anesthetized with i.v. administration of sodium […] (30 mg/kg) and were sacrificed by rapid exsanguination. After the brain was removed, the basilar artery was dissected out under magnification and was sectional in at 2- to 3-mm intervals. […] The segment was initially stretched at a tension of 400 mg for 1 hour with a force-displacement transducer (SB-1T, Nihon Kohden, Tokyo, Japan) during which time the buffer solution was changed several times. […] The total volume of agents never exceeded 25 μl or 5% of the chamber volume and experiments were done in the dark.

Data set [2] is described as follows: Experiment for acute toxicity (oral LD50). Conditions: mouse, in vivo, 5-week old male CD-1 (ICR) mice. The procedure:
Nos. 1, 2, 3 and 4 of the present invention were administered orally to 5-week old male CD-1 (ICR) mice and the LD50 values (g/kg) were determined by a routine method.

The subject of data set [3] is cyclic-GMP content in the thoracic aortae. The experiment in a line: cyclic-GMP content in thoracic aorta rings by radioimmunoassay. The format is cell-based, Sprague-Dawley male rats. Conditions: 1×10^-6, 10^-5 or 10^-4 M, 37° C., 30 minutes. The procedure:
Sprague-Dawley male rats were killed by decapitation, and their thoracic aortae were rapidly removed and immersed in ice-cold Krebs-Henseleit Ringer solution. The blood vessel was cut into rings with a length of about 3 mm and the weight of each wet tissue of the rings was measured. The rings of blood vessels were incubated at 37° C. for 30 minutes in portions of Krebs-Henseleit Ringer solution containing compound No. 1 (1×10^-6, 10^-5 or 10^-4 M) and vinpocetine (10^-4 M) under an atmosphere of 95% O2 - 5% CO2. Trichloroacetic acid (6%) was then added to the solution to stop the reaction and the cyclic-GMP content was determined by radioimunoassay method (YAMASA c-GMP Assay Kit).

A short description of data set [4]: Experiment for subacute toxicity (30 days oral). The format is in vivo, male rats (F344/crj). To be noted: deaths/animals. How it is done:
Compounds No. 1, IV, VI and VII were administered orally to male rats (F344/crj) at doses of […] body weight daily for 30 days and body weight gain were measured.

[5] abbreviates: i.v. over 10 minutes, 0.2 mg/kg.
Setting [6] is: minus: vasoconstriction, 0: no effect.

These results are taken from patent US5017570A, “Dibenzoxazepine compounds useful in the treatment of cerebral vasospasm or its sequela” (Chugai Seiyaku Kabushiki Kaisha, priority 1986, dated 1991).

Counter-ions that a name gives are not always drawn. Some results are limits rather than exact numbers.

The LD50 is the dose at which mortality reaches 50%. Low readings indicate greater toxicity, high ones lower toxicity.

`COc1ccc2c(c1)Oc1ccc(C(=O)O)cc1N=C2C` [1 (Na salt), sodium salt of 3-methoxy-11-methyldibenzo[b,f][1,4]oxazepin-8-carboxylic acid]: in data set [1] (setting [5]), the Retention time is < 4 h; the “Percent increase of r-CBF, 30 min.” value is 9.5%; the “Percent increase of r-CBF, 60 min.” value worked out at 13.6%. For the same compound, in data set [1] (i.v. over 10 minutes, 1 mg/kg), the Retention time is > 4 h; the “Percent increase of r-CBF, 30 min.” value worked out at 13.3%; the “Percent increase of r-CBF, 60 min.” value is listed as 14.7%.
Turning to `CCC1=Nc2cc(C(=O)O)ccc2Oc2cc(OC)ccc21` [2 (Na salt), sodium salt of 3-methoxy-11-ethyldibenzo[b,f][1,4]oxazepin-8-carboxylic acid], in data set [1] (setting [5]), the Retention time was > 4 h; the “Percent increase of r-CBF, 30 min.” value worked out at 12.1%; the “Percent increase of r-CBF, 60 min.” value is 21.0%. In addition, in data set [1] (i.v. over 10 minutes, 1 mg/kg), the Retention time is > 4 h; the “Percent increase of r-CBF, 30 min.” value was found to be 8.1%; the “Percent increase of r-CBF, 60 min.” value was 10.0%.
As for `COc1ccc2c(c1)Oc1ccc(C(=O)O)cc1N=C2C` [Compound No. 1, 3-methoxy-11-methyldibenzo[b,f][1,4]oxazepin-8-carboxylic acid], the vasorelaxating action entry in the data set on basilar artery is reported as “show vasorelaxating action”. Further, the “Relative Potency (vasorelaxation)” value in the data set on basilar artery (No. 2 = 1.00, minus: vasoconstriction, 0: no effect) stood at 49.02. For the same compound, the Vasorelaxation in the data set with basilar artery (setting [6]) was 250.0 mg. Moreover, the LD50 in data set [2] was in the range of 3000 to 3500 mg/kg. Moreover, in data set [1] (p.o., 10 mg/kg), the Retention time was > 4 h; the “Percent increase of r-CBF, 30 min.” value is recorded as 12.9%; the “Percent increase of r-CBF, 60 min.” value was determined as 14.4%. Further, in data set [1] (p.o., 20 mg/kg), the Retention time was > 4 h; the “Percent increase of r-CBF, 30 min.” value is 11.8%; the “Percent increase of r-CBF, 60 min.” value is listed as 11.0%. In data set [1] (p.o., 50 mg/kg), the Retention time was > 4 h; the “Percent increase of r-CBF, 30 min.” value is on record as 14.6%; the “Percent increase of r-CBF, 60 min.” value was 10.0%. For the same compound, the “cyclic-GMP content in the thoracic aortae” value in data set [3] is reported as “increased dose-dependently”.
Take `CCC1=Nc2cc(C(=O)O)ccc2Oc2cc(OC)ccc21` [Compound No. 2]: in the data set on basilar artery, the vasorelaxating action result is “show vasorelaxating action”. The same compound registered a Vasorelaxation with basilar artery (setting [6]) of 5.1 mg. Moreover, the LD50 in data set [2] lay in the range of 4200 to 5000 mg/kg. Moreover, in data set [1] (p.o., 10 mg/kg), the Retention time is < 2 h; the “Percent increase of r-CBF, 30 min.” value is 0.99%; the “Percent increase of r-CBF, 60 min.” value worked out at 9.1%. Besides, in data set [1] (p.o., 20 mg/kg), the Retention time is > 4 h; the “Percent increase of r-CBF, 30 min.” value came out at 13.8%; the “Percent increase of r-CBF, 60 min.” value is reported as 19.6%. Besides, in data set [1] (p.o., 50 mg/kg), the Retention time is > 4 h; the “Percent increase of r-CBF, 30 min.” value is listed as 28.9%; the “Percent increase of r-CBF, 60 min.” value is listed as 22.4%.
In the case of `CCC1=Nc2cc(C(=O)O)ccc2Oc2cc(O)ccc21` [No. I, reference compound], in the data set with basilar artery (setting [6]), the Vasorelaxation is recorded as -20.5 mg.
In turn, `CCOC(=O)c1ccc2c(c1)N=Cc1ccc(C)cc1O2` [No. II, reference compound] displayed a Vasorelaxation with basilar artery (setting [6]) of 0 mg.
In the case of `CCOC(=O)c1ccc2c(c1)N=C(c1ccccc1)c1ccc(OC)cc1O2` [No. III, reference compound], the Vasorelaxation with basilar artery (setting [6]) is listed as 0 mg.
Take `CCOC(=O)c1ccc2c(c1)N=C(CC)c1ccc(OC)cc1O2` [No. IV, reference compound]: the Vasorelaxation in the data set on basilar artery (setting [6]) was 0 mg. The death in data set [4] (2000 mg/kg daily for 30 days) is recorded as 4/6.
Consider `CCC1Nc2cc(C(=O)O)ccc2Oc2cc(OC)ccc21` (centres unmarked) [No. V, reference compound], for which the Vasorelaxation with basilar artery (setting [6]) is listed as 0 mg.
Take `CCC1=Nc2cc(C(=O)O)ccc2Oc2cc(C)ccc21` [No. VII]: in data set [4] (1000 mg/kg daily for 30 days), the death was 5/6.
As to `CCOC(=O)C1=C[C@]2(CC)CCCN3CCc4c(n1c1ccccc41)[C@@H]32` [Vinpocetine, vinpocetine, reference compound], in data set [1] (i.v. over 10 minutes, 1 mg/kg), the “Percent increase of r-CBF, 30 min.” value stood at 1.0% and the “Percent increase of r-CBF, 60 min.” value was < 2.3%. In addition, in data set [1] (i.v. over 10 minutes, 5 mg/kg), the Retention time is < 1 h; the “Percent increase of r-CBF, 30 min.” value is listed as -0.9%; the “Percent increase of r-CBF, 60 min.” value is 8.3%. Further, in data set [1] (p.o., 20 mg/kg), the Retention time was < 1 h; the “Percent increase of r-CBF, 30 min.” value amounted to 12.3%; the “Percent increase of r-CBF, 60 min.” value turned out to be 5.2%.
